Measured values reported in paper PMC11990805, “Investigation of Anticancer Peptides Derived from Arca Species Using In Silico Analysis” (Molecules, 2025).
Residues, ends and D or L forms follow the SMILES beside them. No end group written: not given here.

Experiment: Hemolysis assay
Format: cell-based
Settings: sheep; 2% (v/v) erythrocyte suspension, 0.05-1 mg/mL, 37 °C 30 min; read-out: hemolysis rate
Method: The hemolytic activity was evaluated using a modified reference method. Briefly, sheep erythrocytes were isolated by centrifugation at 1000× g for 5 min following washing with physiological saline. The washing procedure was repeated until the supernatant became colorless, and the erythrocyte pellet was collected. A 2% (v/v) erythrocyte suspension was prepared in physiological saline. Aliquots (1 mL) of the suspension were incubated with peptide solutions (KW, WQIWYK, […]) at concentrations of 0.05, 0.1, 0.5, and 1 mg/mL. Experimental controls included 0.1% Triton X-100 (positive control) and sterile PBS (negative control). Following incubation at 37 °C for 30 min, samples were centrifuged at 1000× g for 5 min. Hemoglobin release was quantified by measuring the absorbance of 200 μL supernatant at 425 nm using a microplate reader. The hemolysis percentage was calculated as follows:Hemolysis (%) = (As − AN)/(AP − AN) × 100 where As, AN, and AP represent the absorbance values of the sample, negative control, and positive control, respectively.

In the case of `NCCCC[C@H](N)C(=O)N[C@@H](Cc1c[nH]c2ccccc12)C(=O)O` [KW] (H-Lys-Trp-OH; N-terminus and C-terminus assumed), the hemolysis at 30 min is reported as under 5%.

WQIWYK [WQIWYK] gave a hemolysis at 30 min of under 5%.
